Test results as given in patent US11446287B2, “Compounds and methods for EP300 or CBP modulation and indications therefor” (Opna Immuno-Oncology SA, priority 2019, dated 2022).

Molecular target: T1, Recombinant human CBP containing the bromodomain (CBP-BD (1043-1159)) (Homo sapiens, UniProt Q92793)
T1 construct: Recombinant human CBP bromodomain (CBP-BD (1043-1159)); made in house; host or cells: E. coli BL21-CodonPlus (DE3), modified pET vector
Experiment: CBP Alphascreen binding assay
Settings: read-out: CREBBP (CBP) IC50
Procedure, shortened: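 Buffer: 50 mM HEPES pH 7.5, 50 mM NaCl, 0.01% BSA, 0.01% Triton X-100, 2 mM DTT. The signal was normalised to plate controls and fitted with a four-parameter curve to give IC50.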

T1 sequence (Q92793 1081-1197): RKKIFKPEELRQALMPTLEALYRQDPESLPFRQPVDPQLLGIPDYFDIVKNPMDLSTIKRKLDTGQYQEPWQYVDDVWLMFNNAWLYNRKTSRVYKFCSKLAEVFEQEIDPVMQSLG

| Compound | IC50 [nM] |
| --- | --- |
| CCOc1cc(C(=O)O)cc(OCC)c1-n1cc(-c2cnn(CCC#N)c2)c2ncc(-c3c(C)noc3C)cc21 [P-0266, 4-(3-(1-(2-cyanoethyl)-1H-pyrazol-4-yl)-6-(3,5-dimethylisoxazol-4-yl)-1H-pyrrolo[3,2-b]pyridin-1-yl)-3,5-diethoxybenzoic acid] | 0.1 to 1000 |
| CCOc1cc(C(=O)O)cc(OCC)c1-n1cc(-c2cnn(CC(=O)N(C)C)c2)c2ncc(-c3c(C)noc3C)cc21 [P-0267, 4-(3-(1-(2-(dimethylamino)-2-oxoethyl)-1H-pyrazol-4-yl)-6-(3,5-dimethylisoxazol-4-yl)-1H-pyrrolo[3,2-b]pyridin-1-yl)-3,5-diethoxybenzoic acid] | 0.1 to 1000 |
| Cc1noc(C)c1-c1cnc2c(c1)c(-c1cc(C(=O)O)ccc1OC(F)(F)F)cn2-c1ccc(F)cc1F [P-0268, 3-(1-(2,4-difluorophenyl)-5-(3,5-dimethylisoxazol-4-yl)-1H-pyrrolo[2,3-b]pyridin-3-yl)-4-(trifluoromethoxy)benzoic acid] | 0.1 to 1000 |
| Cc1noc(C)c1-c1cnc2c(-c3ccc(F)cc3F)cn(-c3c(OC(C)C)cc(C(=O)O)cc3OC(C)C)c2c1 [P-0269, 4-(3-(2,4-difluorophenyl)-6-(3,5-dimethylisoxazol-4-yl)-1H-pyrrolo[3,2-b]pyridin-1-yl)-3,5-diisopropoxybenzoic acid] | 0.1 to 1000 |
| CCOc1cc(C(=O)O)cc(OCC)c1-n1cc(CC2CCC2)c2ncc(-n3c(C)nnc3C)cc21 [P-0270, 4-(3-(cyclobutylmethyl)-6-(3,5-dimethyl-4H-1,2,4-triazol-4-yl)-1H-pyrrolo[3,2-b]pyridin-1-yl)-3,5-diethoxybenzoic acid] | 1000 to 8000 |
| CCOc1cc(C(=O)O)cc(OCC)c1-n1cc(C2CCC(F)(F)CC2)c2ncc(-c3c(C)noc3C)cc21 [P-0271, 4-(3-(4,4-difluorocyclohexyl)-6-(3,5-dimethylisoxazol-4-yl)-1H-pyrrolo[3,2-b]pyridin-1-yl)-3,5-diethoxybenzoic acid] | 0.1 to 1000 |
| Cc1noc(C)c1-c1cnc2c(c1)c(-c1cnn(CC(=O)O)c1)cn2-c1ncccc1C#CC1CC1 [P-0272, 2-(4-(1-(3-(cyclopropylethynyl)pyridin-2-yl)-5-(3,5-dimethylisoxazol-4-yl)-1H-pyrrolo[2,3-b]pyridin-3-yl)-1H-pyrazol-1-yl)acetic acid] | 0.1 to 1000 |
| Cc1noc(C)c1-c1cnc2c(c1)c(-c1ccc(C(=O)O)cc1OC(F)F)cn2-c1ccccc1 [P-0273, 3-(difluoromethoxy)-4-(5-(3,5-dimethylisoxazol-4-yl)-1-phenyl-1H-pyrrolo[2,3-b]pyridin-3-yl)benzoic acid] | 0.1 to 1000 |
| Cc1noc(C)c1-c1cnc2c(-c3ccccc3)cn(-c3cc(C(=O)O)ccc3OC(F)(F)F)c2c1 [P-0274, 3-(6-(3,5-dimethylisoxazol-4-yl)-3-phenyl-1H-pyrrolo[3,2-b]pyridin-1-yl)-4-(trifluoromethoxy)benzoic acid] | 0.1 to 1000 |
| Cc1noc(C)c1-c1cnc2c(c1)c(-c1ccc(C(=O)O)cc1OC(C)C)cn2-c1ccccc1 [P-0275, 4-(5-(3,5-dimethylisoxazol-4-yl)-1-phenyl-1H-pyrrolo[2,3-b]pyridin-3-yl)-3-isopropoxybenzoic acid] | 0.1 to 1000 |
| Cc1noc(C)c1-c1cnc2c(c1)c(-c1ccc(C(=O)O)cc1OC1CCC1)cn2-c1ccccc1 [P-0276, 3-cyclobutoxy-4-(5-(3,5-dimethylisoxazol-4-yl)-1-phenyl-1H-pyrrolo[2,3-b]pyridin-3-yl)benzoic acid] | 0.1 to 1000 |
| Cc1noc(C)c1-c1cnc2c(c1)c(-c1ccc(C(=O)O)cc1OCC(F)F)cn2-c1ccccc1 [P-0277, 3-(2,2-difluoroethoxy)-4-(5-(3,5-dimethylisoxazol-4-yl)-1-phenyl-1H-pyrrolo[2,3-b]pyridin-3-yl)benzoic acid] | 0.1 to 1000 |
| Cc1noc(C)c1-c1cnc2c(c1)c(-c1ccc(C(=O)O)cc1OCC(F)(F)F)cn2-c1ccccc1 [P-0278, 4-(5-(3,5-dimethylisoxazol-4-yl)-1-phenyl-1H-pyrrolo[2,3-b]pyridin-3-yl)-3-(2,2,2-trifluoroethoxy)benzoic acid] | 0.1 to 1000 |
| Cc1noc(C)c1-c1cnc2c(c1)c(-c1ccc(C(=O)O)cc1OC(F)(F)F)cn2-c1ccc(F)cc1 [P-0279, 4-(5-(3,5-dimethylisoxazol-4-yl)-1-(4-fluorophenyl)-1H-pyrrolo[2,3-b]pyridin-3-yl)-3-(trifluoromethoxy)benzoic acid] | 0.1 to 1000 |
| Cc1noc(C)c1-c1cnc2c(c1)c(-c1cnn(CC(=O)O)c1)cn2C(C1CC1)C1CC1 [P-0280, 2-(4-(1-(dicyclopropylmethyl)-5-(3,5-dimethylisoxazol-4-yl)-1H-pyrrolo[2,3-b]pyridin-3-yl)-1H-pyrazol-1-yl)acetic acid] | 0.1 to 1000 |
| Cc1noc(C)c1-c1cnc2c(c1)c(-c1ccc(C(=O)O)cc1OC(F)(F)F)cn2-c1cnc(N2CCC2)nc1 [P-0281, 4-(1-(2-(azetidin-1-yl)pyrimidin-5-yl)-5-(3,5-dimethylisoxazol-4-yl)-1H-pyrrolo[2,3-b]pyridin-3-yl)-3-(trifluoromethoxy)benzoic acid] | 0.1 to 1000 |
| Cc1noc(C)c1-c1cnc2c(c1)c(-c1ccc(C(=O)O)cc1OC(F)(F)F)cn2-c1ccc(S(C)(=O)=O)cc1 [P-0282, 4-(5-(3,5-dimethylisoxazol-4-yl)-1-(4-(methylsulfonyl)phenyl)-1H-pyrrolo[2,3-b]pyridin-3-yl)-3-(trifluoromethoxy)benzoic acid] | 0.1 to 1000 |
| Cc1noc(C)c1-c1cnc2c(c1)c(-c1c(Cl)cc(C(=O)O)cc1OC(C)C)cn2C(C1CC1)C1CC1 [P-0283, 3-chloro-4-(1-(dicyclopropylmethyl)-5-(3,5-dimethylisoxazol-4-yl)-1H-pyrrolo[2,3-b]pyridin-3-yl)-5-isopropoxybenzoic acid] | 0.1 to 1000 |
| Cc1noc(C)c1-c1cnc2c(c1)c(-c1cc(C(=O)O)ccc1OC(F)(F)F)cn2C(C1CC1)C1CC1 [P-0284, 3-(1-(dicyclopropylmethyl)-5-(3,5-dimethylisoxazol-4-yl)-1H-pyrrolo[2,3-b]pyridin-3-yl)-4-(trifluoromethoxy)benzoic acid] | 0.1 to 1000 |
| Cc1noc(C)c1-c1cnc2c(c1)c(-c1ccc(C(=O)O)cc1OC(F)(F)F)cn2[C@H]1CCOC1 [P-0285, (S)-4-(5-(3,5-dimethylisoxazol-4-yl)-1-(tetrahydrofuran-3-yl)-1H-pyrrolo[2,3-b]pyridin-3-yl)-3-(trifluoromethoxy)benzoic acid] | 0.1 to 1000 |
| Cc1noc(C)c1-c1cnc2c(c1)c(-c1ccc(C(=O)O)cc1OC(F)(F)F)cn2[C@@H]1CCOC1 [P-0286, (R)-4-(5-(3,5-dimethylisoxazol-4-yl)-1-(tetrahydrofuran-3-yl)-1H-pyrrolo[2,3-b]pyridin-3-yl)-3-(trifluoromethoxy)benzoic acid] | 0.1 to 1000 |
| CCn1cc(-n2cc(-c3ccc(C(=O)O)cc3OC(F)(F)F)c3cc(-c4c(C)noc4C)cnc32)c(C)n1 [P-0287, 4-(5-(3,5-dimethylisoxazol-4-yl)-1-(1-ethyl-3-methyl-1H-pyrazol-4-yl)-1H-pyrrolo[2,3-b]pyridin-3-yl)-3-(trifluoromethoxy)benzoic acid] | 0.1 to 1000 |
| Cc1nn(C(F)F)cc1-n1cc(-c2ccc(C(=O)O)cc2OC(F)(F)F)c2cc(-c3c(C)noc3C)cnc21 [P-0288, 4-(1-(1-(difluoromethyl)-3-methyl-1H-pyrazol-4-yl)-5-(3,5-dimethylisoxazol-4-yl)-1H-pyrrolo[2,3-b]pyridin-3-yl)-3-(trifluoromethoxy)benzoic acid] | 0.1 to 1000 |
| Cc1noc(C)c1-c1cnc2c(c1)c(-c1ccc(C(=O)O)cc1OC(F)(F)F)cn2-c1cnn(C(F)F)c1C [P-0289, 4-(1-(1-(difluoromethyl)-5-methyl-1H-pyrazol-4-yl)-5-(3,5-dimethylisoxazol-4-yl)-1H-pyrrolo[2,3-b]pyridin-3-yl)-3-(trifluoromethoxy)benzoic acid] | 0.1 to 1000 |
| Cc1noc(C)c1-c1cnc2c(c1)c(-c1ccc(C(=O)O)cc1OC(F)(F)F)cn2C1CCNCC1 [P-0290, 4-(5-(3,5-dimethylisoxazol-4-yl)-1-(piperidin-4-yl)-1H-pyrrolo[2,3-b]pyridin-3-yl)-3-(trifluoromethoxy)benzoic acid] | 0.1 to 1000 |
| CC(=O)N1CCC(n2cc(-c3ccc(C(=O)O)cc3OC(F)(F)F)c3cc(-c4c(C)noc4C)cnc32)CC1 [P-0291, 4-(1-(1-acetylpiperidin-4-yl)-5-(3,5-dimethylisoxazol-4-yl)-1H-pyrrolo[2,3-b]pyridin-3-yl)-3-(trifluoromethoxy)benzoic acid] | 0.1 to 1000 |
| Cc1noc(C)c1-c1cnc2c(c1)c(-c1ccc(C(=O)O)cc1OC(F)(F)F)cn2C1CCN(S(C)(=O)=O)CC1 [P-0292, 4-(5-(3,5-dimethylisoxazol-4-yl)-1-(1-(methylsulfonyl)piperidin-4-yl)-1H-pyrrolo[2,3-b]pyridin-3-yl)-3-(trifluoromethoxy)benzoic acid] | 0.1 to 1000 |
| Cc1noc(C)c1-c1cnc2c(c1)c(-c1ccc(C(=O)O)cc1OC(F)(F)F)cn2-c1ccncc1F [P-0293, 4-(5-(3,5-dimethylisoxazol-4-yl)-1-(3-fluoropyridin-4-yl)-1H-pyrrolo[2,3-b]pyridin-3-yl)-3-(trifluoromethoxy)benzoic acid] | 0.1 to 1000 |
| Cc1noc(C)c1-c1cnc2c(c1)c(-c1ccc(C(=O)O)cc1OC(F)(F)F)cn2-c1cnn(CC(C)(C)O)c1 [P-0294, 4-(5-(3,5-dimethylisoxazol-4-yl)-1-(1-(2-hydroxy-2-methylpropyl)-1H-pyrazol-4-yl)-1H-pyrrolo[2,3-b]pyridin-3-yl)-3-(trifluoromethoxy)benzoic acid] | 0.1 to 1000 |
| CCOc1cc(C(=O)O)ncc1-c1cn(-c2ccc(F)cc2F)c2ncc(-c3c(C)noc3C)cc12 [P-0295, 5-(1-(2,4-difluorophenyl)-5-(3,5-dimethylisoxazol-4-yl)-1H-pyrrolo[2,3-b]pyridin-3-yl)-4-ethoxypicolinic acid] | 0.1 to 1000 |
